Earlier results on one molecule are cited in publication PMC11839696 (European Journal of Nuclear Medicine and Molecular Imaging, 2024).

The subject of this data set is prostate cancer tissue. On the set-up: AUC of the ROC analysis: unit not given beside the values.

With `O=C(O)CC[C@H](NC(=O)N[C@@H](CCCCNC(=O)[C@H](Cc1ccc2ccccc2c1)NC(=O)c1ccc(CNC(=O)[C@H](CCC(=O)O)NC(=O)[C@H](CCC(=O)O)NC(=O)c2ccc([18F])nc2)cc1)C(=O)O)C(=O)O` [[^18F]-PSMA-1007], under “at 75 CPM”, the sensitivity is reported as 65.1% and the specificity is given as 87%. The “optimal threshold for determining PCa” value (five patients, 113 cores) is 75 CPM. For the same molecule, under “five patients, 113 cores, within 3 h after injection”, the “AUC of the ROC analysis” value was 0.81.
